Measured values published in US20220324835A1 (Nurix Therapeutics, Inc., priority 2018, published 2022).

How the values were obtained:
Cbl-b (residues 36-427) = Cbl-b (residues 36-427) (Homo sapiens, UniProt Q13191); assay: Cbl-b binding assay (SPR, Biacore T200); conditions: 20° C., 1:1 binding model
Outline: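 Steps: capture protein on NeutrAvidin surface; inject compound dilutions (8 or 10 points from 100 or 50 μM) 50 s; allow 90-180 s dissociation; regenerate 20 s with 0.3 M NaCl. Runs at 20° C in HEPES pH 7.5/100 mM NaCl/2% DMSO; 1:1 fitting.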

[1] = system: human T-cells with allogenic immature dendritic cells; assay: Allogenic mixed lymphocyte reaction (MLR), T-cell proliferation; type: cell-based; conditions: 120 h, 5 days, baseline T-cells without Cbl-b inhibitor, read-out: Proliferation, fold change over baseline
Experimental: Cbl-b inhibitor effects on primary human T-cells were also evaluated in the context of an allogenic mixed lymphocyte reaction (MLR). Allogenic immature dendritic cells were generated under the following conditions. Peripheral blood mononuclear cells (PBMC) were obtained either: 1) by using Ficoll-Paque™ (GE Healthcare) for separation of peripheral blood hematopoietic cells from huffy coats of healthy human donors; or 2) directly from LeukoPak donations. […] Monocytes were cultured with 30 ng/mL of recombinant human GM-CSF and 20 ng/mL of recombinant human IL-4 for seven days to generate immature dendritic cells. Monocytes and T-cells were either isolated fresh from peripheral blood or thawed from frozen stocks. Human T-cells were isolated, labeled with CFSE and incubated with inhibitors as described above. […] Proliferation of the T-cells was evaluated by flow cytometry.
Readouts for the allogenic mixed lymphocyte reaction were reported as fold change over baseline. Baseline for this study was the measurement obtained from total human T-cells stimulated with allogenic immature dendritic cells, wherein the T-cells were not incubated with a Cbl-b inhibitor (Table 5). Increases in proliferation greater than 2-fold over baseline were considered a positive response (Table 5).

Sequence of Cbl-b (residues 36-427) (Q13191 36-427): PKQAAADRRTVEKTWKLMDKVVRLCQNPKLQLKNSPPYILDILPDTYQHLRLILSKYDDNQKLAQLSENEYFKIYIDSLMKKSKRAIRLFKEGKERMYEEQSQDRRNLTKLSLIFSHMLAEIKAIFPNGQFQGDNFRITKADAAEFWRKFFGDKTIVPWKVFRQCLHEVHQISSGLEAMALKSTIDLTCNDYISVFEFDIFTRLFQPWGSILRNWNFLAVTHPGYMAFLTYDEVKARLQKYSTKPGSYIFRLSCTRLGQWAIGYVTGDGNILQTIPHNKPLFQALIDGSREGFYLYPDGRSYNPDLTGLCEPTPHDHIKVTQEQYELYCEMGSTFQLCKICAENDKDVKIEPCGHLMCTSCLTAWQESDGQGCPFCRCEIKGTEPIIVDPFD

Cc1n[nH]c(C)c1-c1cc2c(c(C(F)(F)F)c1)CN(c1cccc(C3(Cc4nncn4C)COC3)c1)C2=O [Compound 385, 6-(3,5-dimethyl-1H-pyrazol-4-yl)-2-(3-{3-[(4-methyl-4H-1,2,4-triazol-3-yl)methyl]oxetan-3-yl}phenyl)-4-(trifluoromethyl)-2,3-dihydro-1H-isoindol-1-one]
Kd (Cbl-b (residues 36-427)): < 100 nM
fold induction at 3 µM [1]: < 2
fold induction at 10 µM [1]: < 2

C[C@@H](c1cc2c(c(C(F)(F)F)c1)CN(c1cccc(C3(Cc4nncn4C)COC3)c1)C2=O)N1CC[C@H](F)C1 [Compound 412, 6-((S)-1-((S)-3-fluoropyrrolidin-1-yl)ethyl)-2-(3-(3-((4-methyl-4H-1,2,4-triazol-3-yl)methyl)oxetan-3-yl)phenyl)-4-(trifluoromethyl)isoindolin-1-one]
fold induction at 3 µM [1]: > 3.01
fold induction at 10 µM [1]: > 3.01

C[C@H](c1cc2c(c(C(F)(F)F)c1)CN(c1cccc(C3(Cc4nncn4C)COC3)c1)C2=O)N1CC[C@H](F)C1 [Compound 413, 6-((R)-1-((S)-3-fluoropyrrolidin-1-yl)ethyl)-2-(3-(3-((4-methyl-4H-1,2,4-triazol-3-yl)methyl)oxetan-3-yl)phenyl)-4-(trifluoromethyl)isoindolin-1-one]
fold induction at 3 µM [1]: 2.01 to 3
fold induction at 10 µM [1]: > 3.01

Cn1cnnc1CC1(c2cccc(N3Cc4c(cc(CN5CC(F)C5)cc4C(F)(F)F)C3=O)c2)COC1 [Compound 415, 6-((3-fluoroazetidin-1-yl)methyl)-2-(3-(3-((4-methyl-4H-1,2,4-triazol-3-yl)methyl)oxetan-3-yl)phenyl)-4-(trifluoromethyl)isoindolin-1-one]
fold induction at 3 µM [1]: 2.01 to 3
fold induction at 10 µM [1]: > 3.01

Cn1cnnc1CC1(c2cccc(N3Cc4c(cc(CN5CC[C@H](C#N)C5)cc4C(F)(F)F)C3=O)c2)COC1 [Compound 422, (S)-1-((2-(3-(3-((4-methyl-4H-1,2,4-triazol-3-yl)methyl)oxetan-3-yl)phenyl)-3-oxo-7-(trifluoromethyl)isoindolin-5-yl)methyl)pyrrolidine-3-carbonitrile]
fold induction at 3 µM [1]: < 2
fold induction at 10 µM [1]: 2.01 to 3

Cn1cnnc1C(F)(F)[C@](C)(F)c1cccc(N2Cc3c(cc(N4CCNCC4)cc3C(F)(F)F)C2=O)c1 [Compound 442, (R)-6-(Piperazin-1-yl)-2-(3-(1,1,2-trifluoro-1-(4-methyl-4H-1,2,4-triazol-3-yl)propan-2-yl)phenyl)-4-(trifluoromethyl)isoindolin-1-one]
fold induction at 3 µM [1]: < 2
fold induction at 10 µM [1]: < 2

Cn1cnnc1C(F)(F)[C@](C)(F)c1cccc(N2Cc3c(cc(CN4CC[C@@H](C#N)C4)cc3C(F)(F)F)C2=O)c1 [Compound 455, (R)-1-((3-oxo-2-(3-((R)-1,1,2-trifluoro-1-(4-methyl-4H-1,2,4-triazol-3-yl)propan-2-yl)phenyl)-7-(trifluoromethyl)isoindolin-5-yl)methyl)pyrrolidine-3-carbonitrile]
fold induction at 3 µM [1]: < 2
fold induction at 10 µM [1]: < 2

Cn1cnnc1CC1(c2cccc(NC(=O)c3cc(CN4CCC5(CC5)C4)cc(C4CC4)n3)c2)COC1 [Compound 519, 4-((5-azaspiro[2.4]heptan-5-yl)methyl)-6-cyclopropyl-N-(3-(3-((4-methyl-4H-1,2,4-triazol-3-yl)methyl)oxetan-3-yl)phenyl)picolinamide]
fold induction at 3 µM [1]: > 3.01
fold induction at 10 µM [1]: > 3.01

Cn1cnnc1CC1(c2cccc(N3Cc4c(cc(CN5CCC6(CC6)C5)cc4C(F)(F)F)C3=O)c2)COC1 [Compound 520, 6-((5-azaspiro[2.4]heptan-5-yl)methyl)-2-(3-(3-((4-methyl-4H-1,2,4-triazol-3-yl)methyl)oxetan-3-yl)phenyl)-4-(trifluoromethyl)isoindolin-1-one]
fold induction at 3 µM [1]: > 3.01
fold induction at 10 µM [1]: > 3.01
